Numbered stars: 1 amine (or outer) side, 2 acyl side, 3 side chain; on linkers, the order of the positions; unused ones are H or OH. Square brackets hold non-standard residues; d marks the D form. Peptide text beside a SMILES is read from it. X1 = O=C(c1ccc(-c2ccc(N3CCNCC3)cc2)c(CN[*:1])c1)[*:2]
Biological target: T1, integrin α4β7 (Homo sapiens, UniProt P13612+P26010)
T1 construct: purchased R&D Systems 5397-A3-050
T1 sequence (P13612 34-970 limits assumed): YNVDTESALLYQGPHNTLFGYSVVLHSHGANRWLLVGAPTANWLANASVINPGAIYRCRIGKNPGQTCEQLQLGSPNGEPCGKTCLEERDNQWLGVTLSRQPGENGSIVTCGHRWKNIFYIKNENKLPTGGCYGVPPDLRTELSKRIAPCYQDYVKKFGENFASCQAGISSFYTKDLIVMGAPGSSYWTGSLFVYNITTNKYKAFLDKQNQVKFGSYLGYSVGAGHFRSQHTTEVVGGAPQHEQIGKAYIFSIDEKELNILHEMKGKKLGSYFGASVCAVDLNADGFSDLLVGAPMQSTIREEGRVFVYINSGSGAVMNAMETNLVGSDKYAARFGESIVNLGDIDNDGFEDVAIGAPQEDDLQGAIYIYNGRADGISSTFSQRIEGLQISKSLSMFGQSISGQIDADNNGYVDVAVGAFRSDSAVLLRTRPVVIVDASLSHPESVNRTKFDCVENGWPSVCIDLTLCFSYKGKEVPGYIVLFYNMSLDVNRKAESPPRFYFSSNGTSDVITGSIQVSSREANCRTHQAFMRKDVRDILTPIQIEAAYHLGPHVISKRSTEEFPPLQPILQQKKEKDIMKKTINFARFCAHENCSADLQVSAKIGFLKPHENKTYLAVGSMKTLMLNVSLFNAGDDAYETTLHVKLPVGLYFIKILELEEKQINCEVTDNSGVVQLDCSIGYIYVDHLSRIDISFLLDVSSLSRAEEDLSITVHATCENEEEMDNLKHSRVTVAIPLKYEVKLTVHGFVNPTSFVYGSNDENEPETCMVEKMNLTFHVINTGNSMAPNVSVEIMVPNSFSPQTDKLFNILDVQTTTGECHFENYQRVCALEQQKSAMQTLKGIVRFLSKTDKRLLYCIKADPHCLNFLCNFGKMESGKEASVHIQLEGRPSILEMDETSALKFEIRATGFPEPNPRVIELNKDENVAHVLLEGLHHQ
T1 sequence (P26010 20-723 limits assumed): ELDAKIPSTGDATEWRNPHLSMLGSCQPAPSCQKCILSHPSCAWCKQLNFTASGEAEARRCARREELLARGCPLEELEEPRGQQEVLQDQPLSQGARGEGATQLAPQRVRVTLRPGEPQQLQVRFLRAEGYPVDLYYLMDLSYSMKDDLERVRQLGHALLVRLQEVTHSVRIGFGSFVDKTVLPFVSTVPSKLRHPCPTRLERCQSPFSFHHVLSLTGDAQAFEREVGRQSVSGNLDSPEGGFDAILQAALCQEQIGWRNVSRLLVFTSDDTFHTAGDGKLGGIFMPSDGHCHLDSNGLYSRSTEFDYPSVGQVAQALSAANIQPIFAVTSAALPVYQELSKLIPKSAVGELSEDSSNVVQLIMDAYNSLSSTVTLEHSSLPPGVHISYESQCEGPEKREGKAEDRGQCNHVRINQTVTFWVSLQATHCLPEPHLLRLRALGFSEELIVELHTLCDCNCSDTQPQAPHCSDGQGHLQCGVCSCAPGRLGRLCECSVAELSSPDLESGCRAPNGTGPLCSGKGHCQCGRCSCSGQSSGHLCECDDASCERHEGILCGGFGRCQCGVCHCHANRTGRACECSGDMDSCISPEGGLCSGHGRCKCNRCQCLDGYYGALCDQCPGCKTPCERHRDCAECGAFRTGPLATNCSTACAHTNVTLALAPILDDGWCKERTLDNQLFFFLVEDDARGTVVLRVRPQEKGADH
Experiment: Integrin α4β7-MAdCAM-1 ELISA competition assay
Type: binding
Details: values of the second run
Description: Integrin α4β7-MAdCAM-1 ELISA Competition Assay
A 96-well Microlon plate (Greiner, 655001) was coated with 100 μl per well of a solution of 1 μg/ml recombinant integrin α4β7 (R&D Systems, 5397-A3-050) in carbonate buffer (50 mM, pH 9.6). The plate was incubated at 4′C overnight. The solution was removed and 250 μl blocking buffer (50 mM Tris, 150 mM NaCl, 1 mM MnCl2, 1% BSA, 0.05% Tween) was added per well. The plate was then incubated for 1 hour at room temperature. The plate was washed three times with wash buffer (50 mM Tris, 100 mM NaCl, 1 mM MnCl2, 0.05% Tween). To each well, 50 μl of compound diluted in assay buffer was added by transfer from a compound serial dilution plate. 50 μl recombinant MAdCAM-Fc (R&D systems, 6056-MC-050) at a concentration of 0.1 μg/ml in assay buffer (50 mM Tris, 150 mM NaCl, 1 mM MnCl2, 0.1% BSA, 0.05% Tween) was added to each well. The plate was incubated at room temperature with shaking (300 rpm) for 2 hours to reach binding equilibrium. Then the plate was washed three times in wash buffer and 100 μl anti-human IgG Fc specific-HRP (Abcam, Ab97225) diluted at 1:2000 in assay buffer was added to each well. The plate was incubated at room temperature for 1 hour under agitation. […] The reaction was stopped after 2 minute-incubation by adding 50 μl of 1M H2SO4 and optical absorbance was read at 450 nm.

CC(C)C[C@@H]1NC(=O)c2ccc(-c3ccc(N4CCNCC4)cc3)c(c2)CNC(=O)[C@@H]2CCCN2C(=O)[C@H](C)NC(=O)[C@H]([C@@H](C)O)NC(=O)[C@H](CC(=O)O)NC1=O [Compound 8] (cyclo(P[X1]LDTA))
IC50: ~0.024 µM
